Results: US20060069132A1, “Azolecarboxamide herbicides” (priority 2004, published 2006)

Assays:
ducksalad = test: Test B flooded paddy test; assay type: in vivo, Heteranthera limosa; settings: 1000 g ai/ha, visual rating, scale 0 to 100 (0 no effect, 100 complete control), 13 to 15 days
Outline: (§1)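 Postemergence plants were sprayed with formulated test chemicals at 2 to 18 cm height (1- to 4-leaf stage); paddy species were grown to the 2-leaf stage. After 13 to 15 days in a greenhouse, injury was rated visually against untreated controls on a 0–100 scale (0 = no effect, 100 = complete control).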

morningglory [1] = test: Test B pre-/postemergence herbicide test; assay type: in vivo, Ipomoea coccinea; settings: for Plant response rating, Morningglory: preemergence; for Morningglory plant response rating: postemergence, visual rating, scale 0 (no effect) to 100 (complete control)
Outline: (§2)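 Seeds were planted and treated preemergence with compounds formulated in a non-phytotoxic solvent mixture containing surfactant, while plants at the 1- to 4-leaf stage (2 to 18 cm) received postemergence sprays. Flooded paddy plants were grown to the 2-leaf stage. After 13 to 15 days in a greenhouse, injury was visually rated 0–100 against untreated controls.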

giant foxtail [2] = test: Test A pre-/postemergence herbicide test; assay type: in vivo, Setaria faberi
Outline: (§3)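 Greenhouse injury scoring (0–100, complete control = 100) at approximately ten days follows simultaneous pre- and postemergence application. Soil received a directed spray after seeding; seedlings of 2–10 cm at the one- to two-leaf stage were sprayed to runoff.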

blackgrass = test: Test B postemergence herbicide test; assay type: in vivo, Alopecurus myosuroides; settings: postemergence, visual rating, scale 0 (no effect) to 100 (complete control)
Outline: as §1

barnyardgrass [3] = test: Test B pre-/postemergence herbicide test; assay type: in vivo, Echinochloa crus-galli; settings: for Plant response rating, Barnyardgrass: preemergence; for Barnyardgrass plant response rating: postemergence, visual rating, scale 0 (no effect) to 100 (complete control)
Outline: as §2

barnyardgrass [4] = test: Test A pre-/postemergence herbicide test; assay type: in vivo, Echinochloa crus-galli
Outline: as §3

giant foxtail [5] = test: Test B pre-/postemergence herbicide test; assay type: in vivo, Setaria faberi; settings: for Plant response rating, Foxtail, Giant: preemergence; for Foxtail, Giant plant response rating: postemergence, visual rating, scale 0 (no effect) to 100 (complete control)
Outline: as §2

velvetleaf [6] = test: Test B pre-/postemergence herbicide test; assay type: in vivo, Abutilon theophrasti; settings: for Plant response rating, Velvetleaf: preemergence; for Velvetleaf plant response rating: postemergence, visual rating, scale 0 (no effect) to 100 (complete control)
Outline: as §2

large crabgrass [7] = test: Test A pre-/postemergence herbicide test; assay type: in vivo, Digitaria sanguinalis
Outline: as §3

cocklebur = test: Test B pre-/postemergence herbicide test; assay type: in vivo, Xanthium strumarium; settings: for Plant response rating, Cocklebur: preemergence; for Cocklebur plant response rating: postemergence, visual rating, scale 0 (no effect) to 100 (complete control)
Outline: as §2

corn = test: Test B pre-/postemergence herbicide test; assay type: in vivo, Zea mays; settings: for Plant response rating, Corn: preemergence; for Corn plant response rating: postemergence, visual rating, scale 0 (no effect) to 100 (complete control)
Outline: as §2

rice [8] = test: Test B flooded paddy test; assay type: in vivo, Oryza sativa; settings: 1000 g ai/ha, visual rating, scale 0 to 100 (0 no effect, 100 complete control), 13 to 15 days
Outline: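 Visual ratings, 0 (no effect) to 100 (complete control), made versus controls after 13–15 d greenhouse. Paddy plants treated at 2-leaf stage; postemergence plants at 1- to 4-leaf stage, 2–18 cm tall.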

velvetleaf [9] = test: Test A pre-/postemergence herbicide test; assay type: in vivo, Abutilon theophrasti
Outline: as §3

wild oat = test: Test B postemergence herbicide test; assay type: in vivo, Avena fatua; settings: postemergence, visual rating, scale 0 (no effect) to 100 (complete control)
Outline: as §1

barnyardgrass [10] = test: Test B flooded paddy test; assay type: in vivo, Echinochloa crus-galli; settings: 1000 g ai/ha, visual rating, scale 0 to 100 (0 no effect, 100 complete control), 13 to 15 days
Outline: as §1

morningglory [11] = test: Test A pre-/postemergence herbicide test; assay type: in vivo, Ipomoea spp.
Outline: as §3

rice [12] = test: Test B pre-/postemergence herbicide test; assay type: in vivo, Oryza sativa; settings: preemergence, 125 g ai/ha; 0 to 100 scale, 0 is no effect, 100 is complete control
Outline: as §2

Surinam grass = test: Test B pre-/postemergence herbicide test; assay type: in vivo, Urochloa decumbens; settings: for Plant response rating, Surinam Grass: preemergence; for Surinam Grass plant response rating: postemergence, visual rating, scale 0 (no effect) to 100 (complete control)
Outline: as §2

wheat = test: Test B postemergence herbicide test; assay type: in vivo, Triticum aestivum; parameters: key to Wheat plant response rating: 0 = no effect, 100 = complete control; settings: postemergence, visual rating, scale 0 (no effect) to 100 (complete control)
Outline: as §1

lambsquarters = test: Test B pre-/postemergence herbicide test; assay type: in vivo, Chenopodium album; settings: for Plant response rating, Lambsquarters: preemergence; for Lambsquarters plant response rating: postemergence, visual rating, scale 0 (no effect) to 100 (complete control)
Outline: as §2

pigweed = test: Test B pre-/postemergence herbicide test; assay type: in vivo, Amaranthus retroflexus; settings: for Plant response rating, Pigweed: preemergence; for Pigweed plant response rating: postemergence, visual rating, scale 0 (no effect) to 100 (complete control)
Outline: as §2

large crabgrass [13] = test: Test B pre-/postemergence herbicide test; assay type: in vivo, Digitaria sanguinalis; settings: for Plant response rating, Crabgrass, Large: preemergence; for Crabgrass, Large plant response rating: postemergence, visual rating, scale 0 (no effect) to 100 (complete control)
Outline: as §2

redroot pigweed = test: Test A pre-/postemergence herbicide test; assay type: in vivo, Amaranthus retroflexus
Outline: as §3

[14] = tested on: small flower umbrella sedge; test: Test B flooded paddy test; assay type: in vivo, Cyperus difformis; settings: 1000 g ai/ha, visual rating, scale 0 to 100 (0 no effect, 100 complete control), 13 to 15 days
Outline: as §1

[15] = 500 g ai/ha, visual rating 0-100, 0 no effect, 100 complete control
[16] = 125 g ai/ha, 0 to 100 scale, 0 is no effect, 100 is complete control
[17] = Postemergence, 500 g ai/ha, 0 to 100 scale, 0 no effect, 100 complete control
[18] = Postemergence, 2000 g ai/ha, 0 to 100 scale, 0 no effect, 100 complete control
[19] = Preemergence, 500 g ai/ha, visual rating, 0 to 100 scale (0 no effect, 100 complete control)
[20] = Preemergence, 2000 g ai/ha, visual rating, 0 to 100 scale (0 no effect, 100 complete control)
[21] = preemergence, 500 g ai/ha, visual injury, 0 to 100 scale (0 no effect, 100 complete control)

Compound: CC(=O)c1cc(NC(=O)c2cc(C(C)(C)C)nn2C)ccc1F [Compound 123]
- Ducksalad plant response rating (ducksalad): 50
- Plant response rating, Morningglory (morningglory [1]; [15]): 0
- Morningglory plant response rating (morningglory [1]; 125 g ai/ha): 0
- Morningglory plant response rating (morningglory [1]; 500 g ai/ha): 0
- Plant response rating, Morningglory (morningglory [1]; [16]): 0
- Foxtail, Giant plant response rating (giant foxtail [2]; [17]): 0
- Plant response rating, Foxtail, Giant (giant foxtail [2]; [18]): 10
- Foxtail, Giant plant response rating (giant foxtail [2]; [19]): 0
- Foxtail, Giant plant response rating (giant foxtail [2]; [20]): 0
- Blackgrass plant response rating (blackgrass; 125 g ai/ha): 0
- Blackgrass plant response rating (blackgrass; 500 g ai/ha): 0
- Plant response rating, Barnyardgrass (barnyardgrass [3]; [15]): 0
- Barnyardgrass plant response rating (barnyardgrass [3]; 125 g ai/ha): 0
- Barnyardgrass plant response rating (barnyardgrass [3]; 500 g ai/ha): 0
- Plant response rating, Barnyardgrass (barnyardgrass [3]; [16]): 0
- Barnyardgrass plant response rating (barnyardgrass [4]; [17]): 5
- Plant response rating, Barnyardgrass (barnyardgrass [4]; [18]): 20
- Barnyardgrass plant response rating (barnyardgrass [4]; [19]): 5
- Barnyardgrass plant response rating (barnyardgrass [4]; [20]): 50
- Plant response rating, Foxtail, Giant (giant foxtail [5]; [15]): 0
- Foxtail, Giant plant response rating (giant foxtail [5]; 125 g ai/ha): 0
- Foxtail, Giant plant response rating (giant foxtail [5]; 500 g ai/ha): 0
- Plant response rating, Foxtail, Giant (giant foxtail [5]; [16]): 0
- Plant response rating, Velvetleaf (velvetleaf [6]; [15]): 0
- Velvetleaf plant response rating (velvetleaf [6]; 125 g ai/ha): 0
- Velvetleaf plant response rating (velvetleaf [6]; 500 g ai/ha): 0
- Plant response rating, Velvetleaf (velvetleaf [6]; [16]): 0
- Crabgrass, Large plant response rating (large crabgrass [7]; [17]): 10
- Plant response rating, Crabgrass, Large (large crabgrass [7]; [18]): 10
- Crabgrass, Large plant response rating (large crabgrass [7]; [19]): 15
- Crabgrass, Large plant response rating (large crabgrass [7]; [20]): 0
- Plant response rating, Cocklebur (cocklebur; [15]): 0
- Cocklebur plant response rating (cocklebur; 125 g ai/ha): 0
- Cocklebur plant response rating (cocklebur; 500 g ai/ha): 0
- Plant response rating, Cocklebur (cocklebur; [16]): 0
- Plant response rating, Corn (corn; [15]): 0
- Corn plant response rating (corn; 125 g ai/ha): 0
- Corn plant response rating (corn; 500 g ai/ha): 0
- Plant response rating, Corn (corn; [16]): 0
- Rice plant response rating (rice [8]): 0
- Velvetleaf plant response rating (velvetleaf [9]; [17]): 0
- Plant response rating, Velvetleaf (velvetleaf [9]; [18]): 10
- Velvetleaf plant response rating (velvetleaf [9]; [20]): 0
- Velvetleaf plant response rating (velvetleaf [9]; [21]): 0
- Oat, Wild plant response rating (wild oat; 125 g ai/ha): 0
- Oat, Wild plant response rating (wild oat; 500 g ai/ha): 0
- Barnyardgrass plant response rating (barnyardgrass [10]): 0
- Morningglory plant response rating (morningglory [11]; [17]): 0
- Plant response rating, Morningglory (morningglory [11]; [18]): 10
- Morningglory plant response rating (morningglory [11]; [19]): 0
- Morningglory plant response rating (morningglory [11]; [20]): 0
- Plant response rating, Rice (rice [12]): 0
- Plant response rating, Surinam Grass (Surinam grass; [15]): 0
- Surinam Grass plant response rating (Surinam grass; 125 g ai/ha): 0
- Surinam Grass plant response rating (Surinam grass; 500 g ai/ha): 0
- Plant response rating, Surinam Grass (Surinam grass; [16]): 0
- Wheat plant response rating (wheat; 125 g ai/ha): 0
- Wheat plant response rating (wheat; 500 g ai/ha): 0
- Plant response rating, Lambsquarters (lambsquarters; [15]): 0
- Lambsquarters plant response rating (lambsquarters; 125 g ai/ha): 0
- Lambsquarters plant response rating (lambsquarters; 500 g ai/ha): 0
- Plant response rating, Lambsquarters (lambsquarters; [16]): 0
- Plant response rating, Pigweed (pigweed; [15]): 0
- Pigweed plant response rating (pigweed; 125 g ai/ha): 0
- Pigweed plant response rating (pigweed; 500 g ai/ha): 0
- Plant response rating, Pigweed (pigweed; [16]): 0
- Plant response rating, Crabgrass, Large (large crabgrass [13]; [15]): 0
- Crabgrass, Large plant response rating (large crabgrass [13]; 125 g ai/ha): 0
- Crabgrass, Large plant response rating (large crabgrass [13]; 500 g ai/ha): 0
- Plant response rating, Crabgrass, Large (large crabgrass [13]; [16]): 0
- Pigweed plant response rating (redroot pigweed; [17]): 0
- Plant response rating, Pigweed (redroot pigweed; [18]): 15
- Pigweed plant response rating (redroot pigweed; [20]): 0
- Pigweed plant response rating (redroot pigweed; [21]): 0
- Sedge, Umbrella plant response rating [14]: 30
